The text below walks through data of paper PMC5337940, “Sansanmycin natural product analogues as potent and selective anti-mycobacterials that inhibit lipid I biosynthesis” (Nature Communications, 2017).

Converted amounts (≈) assume the structure as drawn. Read-outs that look alike come from different tables or passages of the source. Where only a bound is given, the exact number is not on record here.

The test system of experiment [1] is Mtb H37Rv. The experiment in a line: Resazurin reduction microplate assay, growth inhibition of Mtb H37Rv. The experiment is classed as cell-based, Mycobacterium tuberculosis.
For experiment [2], the system named is HEK293 cells. In words: Cytotoxicity counter-screen, resazurin reduction microplate assay. The class given is cell-based. Conditions: Homo sapiens, tested up to 200 μM, read-out: MIC50 (HEK293). On the technique in general: Counterscreens check selectivity or assay interference.
Experiment [3] concerns the target Mtb MurX (Mycobacterium tuberculosis, UniProt P9WMW7). In words: Radiochemical (TLC) MurX-MurG coupled inhibition assay in Mtb mc2 6230 membranes. The experiment is classed as biochemical. Conditions: 200 nM inhibitor, decrease in lipid II formation.
[4] abbreviates: Mycobacterium tuberculosis, H37RV, average of two independent experiments, each in triplicate, read-out: MIC50 Mtb H37Rv.
The mark [5] stands for this setting: average of two independent experiments, each in triplicate.
Where [6] appears, read: average of two independent experiments, each in triplicate, read-out: MIC50 Mtb H37Rv.

Sequence of Mtb MurX (P9WMW7 whole entry): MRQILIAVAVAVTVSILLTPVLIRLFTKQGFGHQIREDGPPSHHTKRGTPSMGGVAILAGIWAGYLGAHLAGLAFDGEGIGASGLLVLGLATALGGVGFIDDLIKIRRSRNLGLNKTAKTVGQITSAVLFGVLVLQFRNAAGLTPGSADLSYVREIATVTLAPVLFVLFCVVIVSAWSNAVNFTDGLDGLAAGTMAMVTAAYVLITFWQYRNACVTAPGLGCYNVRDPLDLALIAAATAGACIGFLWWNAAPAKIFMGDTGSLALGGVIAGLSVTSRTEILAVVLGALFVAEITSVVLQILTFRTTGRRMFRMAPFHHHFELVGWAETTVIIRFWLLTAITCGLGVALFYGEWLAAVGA

`C[C@@H]([C@H](NC(=O)[C@H](Cc1ccccc1)NC(=O)N[C@@H](Cc1c[nH]c2ccccc12)C(=O)O)C(=O)NC[C@H]1C[C@@H](O)[C@H](n2ccc(=O)[nH]c2=O)O1)N(C)C(=O)CN` [Compound 29]: in experiment [1] (setting [4]), the MIC50 (usually the lowest concentration that inhibits either 50% of growth or 50% of the strains tested, depending on the study) was found to be 0.26 ± 0.15 µM (≈ 0.202 µg/mL). Also, the CC50 in experiment [2] was over 200 µM. Moreover, the inhibition (in general, the relative decrease from the control value, in per cent) at 0.2 µM in experiment [3] was 60%.

On to `C[C@@H]([C@H](NC(=O)[C@H](Cc1ccc(C(F)(F)F)cc1)NC(=O)N[C@@H](Cc1c[nH]c2ccccc12)C(=O)O)C(=O)NC[C@H]1C[C@@H](O)[C@H](n2ccc(=O)[nH]c2=O)O1)N(C)C(=O)CN` [Compound 30], for which the MIC50 in experiment [1] (setting [4]) is 0.2 ± 0.06 µM (≈ 0.169 µg/mL). Moreover, the CC50 in experiment [2] was over 200 µM. Also, the inhibition at 0.2 µM in experiment [3] turned out to be 100%.

`C[C@@H]([C@H](NC(=O)[C@H](Cc1ccc(O)cc1)NC(=O)N[C@@H](Cc1c[nH]c2ccccc12)C(=O)O)C(=O)NC[C@H]1C[C@@H](O)[C@H](n2ccc(=O)[nH]c2=O)O1)N(C)C(=O)CN` [Compound 31]: in experiment [1] (setting [4]), the MIC50 is 0.44 to 0.98 µM (≈ 0.348 to 0.776 µg/mL). In addition, the “MIC50 Mtb H37Rv” value in experiment [1] (setting [5]) turned out to be 0.52 ± 0.02 µM (≈ 0.412 µg/mL). Further, in experiment [2], the CC50 was over 200 µM. The same molecule returned an inhibition at 0.2 µM in experiment [3] of 40%.

Turning to `CC(C)C[C@H](NC(=O)N[C@@H](Cc1c[nH]c2ccccc12)C(=O)O)C(=O)N[C@H](C(=O)NC[C@H]1C[C@@H](O)[C@H](n2ccc(=O)[nH]c2=O)O1)[C@H](C)N(C)C(=O)[C@H](C)N` [Compound 13], the results for the MIC50 in experiment [1] (setting [4]) and in experiment [1] (setting [6]) were 0.6 ± 0.14 µM (≈ 0.453 µg/mL) and 0.60 µM (≈ 0.453 µg/mL), respectively. The CC50 in experiment [2] is over 200 µM. This molecule also registered an inhibition at 0.2 µM in experiment [3] of 50%.

In the case of `CO[C@H]1/C=C/O[C@@]2(C)Oc3c(C)c(O)c4c(O)c(c(/C=N/N5CCN(C)CC5)c(O)c4c3C2=O)NC(=O)/C(C)=C\C=C\[C@H](C)[C@H](O)[C@@H](C)[C@@H](O)[C@@H](C)[C@H](OC(C)=O)[C@@H]1C` [RIF, Rifampicin, reference compound], the MIC50 in experiment [1] (setting [4]) was 0.006 ± 0.002 µM (≈ 0.00494 µg/mL).

On to `CC(C)C[C@H](NC(=O)N[C@@H](Cc1c[nH]c2ccccc12)C(=O)O)C(=O)N[C@H](C(=O)NC[C@H]1C[C@@H](O)[C@H](n2ccc(=O)[nH]c2=O)O1)[C@H](C)N(C)C(=O)[C@@H](N)CC1CCCCC1` [Compound 10], for which the MIC50 in experiment [1] (setting [4]) was determined as 1 ± 0.3 µM (≈ 0.838 µg/mL). The “MIC50 Mtb H37Rv” value in experiment [1] (setting [5]) fell in the range of 0.95 to 1.35 µM. For the same molecule, the CC50 in experiment [2] was over 200 µM. The same molecule displayed an inhibition at 0.2 µM in experiment [3] of 41%.

With `C[C@@H]([C@H](NC(=O)[C@H](CCCCN)NC(=O)N[C@@H](Cc1c[nH]c2ccccc12)C(=O)O)C(=O)NC[C@H]1C[C@@H](O)[C@H](n2ccc(=O)[nH]c2=O)O1)N(C)C(=O)CN` [Compound 28], the MIC50 in experiment [1] (Mycobacterium tuberculosis, H37RV, Mtb H37Rv, read-out: MIC50 against Mtb) came to 0.7 µM (≈ 0.53 µg/mL); in experiment [1] (setting [4]) it was 0.7 ± 0.1 µM (≈ 0.53 µg/mL). Moreover, the CC50 in experiment [2] is over 200 µM. Further, the inhibition at 0.2 µM in experiment [3] was 47%.

As for `CC(C)C[C@H](NC(=O)N[C@@H](Cc1c[nH]c2ccccc12)C(=O)O)C(=O)N[C@H](C(=O)NC[C@H]1C[C@@H](O)[C@H](n2ccc(=O)[nH]c2=O)O1)[C@H](C)N(C)C(=O)[C@@H](N)CCCN` [Compound 16], the MIC50 in experiment [1] (setting [4]) worked out at 0.95 ± 0.07 µM (≈ 0.759 µg/mL). The “MIC50 Mtb H37Rv” value in experiment [1] (setting [5]) lay within 0.95 to 1.35 µM. The CC50 in experiment [2] is over 200 µM. This molecule returned an inhibition at 0.2 µM in experiment [3] of 5%.

For the molecule `CCCCC[C@H](NC(=O)N[C@@H](Cc1c[nH]c2ccccc12)C(=O)O)C(=O)N[C@H](C(=O)NC[C@H]1C[C@@H](O)[C@H](n2ccc(=O)[nH]c2=O)O1)[C@H](C)N(C)C(=O)CN` [Compound 23], the MIC50 in experiment [1] (setting [4]) turned out to be 0.51 ± 0.12 µM (≈ 0.385 µg/mL). Besides, the CC50 in experiment [2] was over 200 µM. Moreover, 0.2 µM produced 59% inhibition in experiment [3].

For the molecule `CC(C)C[C@H](NC(=O)N[C@@H](Cc1c[nH]c2ccccc12)C(=O)O)C(=O)N[C@H](C(=O)NC[C@H]1C[C@@H](O)[C@H](n2ccc(=O)[nH]c2=O)O1)[C@H](C)N(C)C(=O)CN` [Compound 12], the results for the MIC50 in experiment [1] (setting [4]) and in experiment [1] (setting [6]) were 0.63 ± 0.17 µM (≈ 0.467 µg/mL) and 0.63 µM (≈ 0.467 µg/mL), respectively. Moreover, in experiment [2], the CC50 is over 200 µM. This molecule also came in with an inhibition at 0.2 µM in experiment [3] of 9%.

Regarding `C[C@@H]([C@H](NC(=O)[C@@H](NC(=O)N[C@@H](Cc1c[nH]c2ccccc12)C(=O)O)C1CCCCC1)C(=O)NC[C@H]1C[C@@H](O)[C@H](n2ccc(=O)[nH]c2=O)O1)N(C)C(=O)CN` [Compound 24], in experiment [1] (setting [4]), the MIC50 came out at 0.51 ± 0.1 µM (≈ 0.392 µg/mL). The CC50 in experiment [2] is over 200 µM. Besides, in experiment [3], at 0.2 µM the inhibition was 41%.

For `CC(C)[C@H](NC(=O)N[C@@H](Cc1c[nH]c2ccccc12)C(=O)O)C(=O)N[C@H](C(=O)NC[C@H]1C[C@@H](O)[C@H](n2ccc(=O)[nH]c2=O)O1)[C@H](C)N(C)C(=O)CN` [Compound 22], in experiment [1] (setting [4]), the MIC50 came to 0.88 ± 0.12 µM (≈ 0.64 µg/mL). For the same molecule, in experiment [2], the CC50 is over 200 µM. Besides, in experiment [3], testing at 0.2 µM gave an inhibition of 26%.

Regarding `C[C@@H]([C@H](NC(=O)[C@H](CCc1ccccc1)NC(=O)N[C@@H](Cc1c[nH]c2ccccc12)C(=O)O)C(=O)NC[C@H]1C[C@@H](O)[C@H](n2ccc(=O)[nH]c2=O)O1)N(C)C(=O)CN` [Compound 35], the MIC50 in experiment [1] (setting [4]) worked out at 1.08 ± 0.1 µM (≈ 0.853 µg/mL). In addition, the CC50 in experiment [2] was over 200 µM.

For `CC(C)C[C@H](NC(=O)N[C@@H](Cc1c[nH]c2ccccc12)C(=O)O)C(=O)N[C@H](C(=O)NC[C@H]1C[C@@H](O)[C@H](n2ccc(=O)[nH]c2=O)O1)[C@H](C)N(C)C(=O)[C@@H](N)Cc1ccc2ccccc2c1` [Compound 9], the MIC50 in experiment [1] (setting [4]) amounted to 3 ± 0.7 µM (≈ 2.65 µg/mL). Besides, the CC50 in experiment [2] is over 200 µM. This molecule also gave an inhibition at 0.2 µM in experiment [3] of 27%.

`C[C@@H]([C@H](NC(=O)[C@H](CC(=O)O)NC(=O)N[C@@H](Cc1c[nH]c2ccccc12)C(=O)O)C(=O)NC[C@H]1C[C@@H](O)[C@H](n2ccc(=O)[nH]c2=O)O1)N(C)C(=O)CN` [Compound 27]: the MIC50 in experiment [1] (Mycobacterium tuberculosis, H37RV, read-out: MIC50 Mtb H37Rv) is over 6.25 µM. Moreover, the CC50 in experiment [2] is over 200 µM. This molecule returned an inhibition at 0.2 µM in experiment [3] of 34%.

For `CSCC[C@H](NC(=O)N[C@@H](Cc1c[nH]c2ccccc12)C(=O)O)C(=O)N[C@H](C(=O)NC[C@H]1C[C@@H](O)[C@H](n2ccc(=O)[nH]c2=O)O1)[C@H](C)N(C)C(=O)[C@@H](N)c1cccc(O)c1` [Compound 4, Dihydrosansanmycin A], in experiment [1] (setting [4]), the MIC50 is 0.5 ± 0.05 µM (≈ 0.426 µg/mL). Further, the CC50 in experiment [2] is over 200 µM. Besides, the inhibition at 0.2 µM in experiment [3] is 68%.

As to `C[C@@H]([C@H](NC(=O)[C@@H](NC(=O)N[C@@H](Cc1c[nH]c2ccccc12)C(=O)O)c1ccccc1)C(=O)NC[C@H]1C[C@@H](O)[C@H](n2ccc(=O)[nH]c2=O)O1)N(C)C(=O)CN` [Compound 34], in experiment [1] (setting [4]), the MIC50 was over 6.25 µM. The CC50 in experiment [2] is over 200 µM. The same molecule showed an inhibition at 0.2 µM in experiment [3] of 51%.

`CC(C)C[C@H](NC(=O)N[C@@H](Cc1c[nH]c2ccccc12)C(=O)O)C(=O)N[C@H](C(=O)NC[C@H]1C[C@@H](O)[C@H](n2ccc(=O)[nH]c2=O)O1)[C@H](C)N(C)C(=O)[C@@H](N)Cc1ccccc1` [Compound 7]: the MIC50 in experiment [1] (setting [4]) turned out to be 4.05 ± 0.63 µM (≈ 3.37 µg/mL). The CC50 in experiment [2] is over 200 µM. For the same molecule, the inhibition at 0.2 µM in experiment [3] amounted to 27%.

With `NNC(=O)c1ccncc1` [INH, isoniazid, reference compound], the MIC50 in experiment [1] (setting [4]) was found to be 0.025 ± 0.005 µM (≈ 0.00343 µg/mL).

Take `C[C@@H]([C@H](NC(=O)[C@H](Cc1cccnc1)NC(=O)N[C@@H](Cc1c[nH]c2ccccc12)C(=O)O)C(=O)NC[C@H]1C[C@@H](O)[C@H](n2ccc(=O)[nH]c2=O)O1)N(C)C(=O)CN` [Compound 32]: the CC50 in experiment [2] was over 200 µM. In experiment [3], this molecule displayed an inhibition at 0.2 µM of 52%.
